Assay results from PubChem BioAssay AID1963437 (Molecular Pharmacology Branch, DTP, NCI, 2024).

Test system: OVCAR-8 complex spheroid, growth inhibition
Assay: Anticancer human tumor OVCAR-8 cell line growth inhibition [Asc];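 further: spheroids exposed to agents for 7 days before readout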;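 on viability, T/C: percent viability relative to DMSO vehicle wells taken as 100%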
Conditions: for IC50: curve of first compound; for viability, T/C: stronger effect = lower value
In short: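 Complex solid-tumor spheroids incorporating human endothelial and mesenchymal stem cells received single agents or combinations over half-log dilution ranges anchored to clinical Cmax.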

[1] = second compound 0.00316 µM, first compound 0.0316 µM
[2] = second compound 0.00316 µM, first compound 0.1 µM
[3] = second compound 0.00316 µM, first compound 0.316 µM
[4] = second compound 0.00316 µM, first compound 1 µM
[5] = second compound 0.00316 µM, first compound 3.16 µM
[6] = second compound 0.00316 µM, first compound 10 µM
[7] = second compound 0.01 µM, first compound 0.0316 µM
[8] = second compound 0.01 µM, first compound 0.1 µM
[9] = second compound 0.01 µM, first compound 0.316 µM
[10] = second compound 0.01 µM, first compound 1 µM
[11] = second compound 0.01 µM, first compound 3.16 µM
[12] = second compound 0.01 µM, first compound 10 µM
[13] = second compound 0.0316 µM, first compound 0.0316 µM
[14] = second compound 0.0316 µM, first compound 0.1 µM
[15] = second compound 0.0316 µM, first compound 0.316 µM
[16] = second compound 0.0316 µM, first compound 1 µM
[17] = second compound 0.0316 µM, first compound 3.16 µM
[18] = second compound 0.0316 µM, first compound 10 µM
[19] = second compound 0.1 µM, first compound 0.0316 µM
[20] = second compound 0.1 µM, first compound 0.1 µM
[21] = second compound 0.1 µM, first compound 0.316 µM
[22] = second compound 0.1 µM, first compound 1 µM
[23] = second compound 0.1 µM, first compound 3.16 µM
[24] = second compound 0.1 µM, first compound 10 µM
[25] = second compound 0.316 µM, first compound 0.0316 µM
[26] = second compound 0.316 µM, first compound 0.1 µM
[27] = second compound 0.316 µM, first compound 0.316 µM
[28] = second compound 0.316 µM, first compound 1 µM
[29] = second compound 0.316 µM, first compound 3.16 µM
[30] = second compound 0.316 µM, first compound 10 µM
[31] = second compound 1 µM, first compound 0.0316 µM
[32] = second compound 1 µM, first compound 0.1 µM
[33] = second compound 1 µM, first compound 0.316 µM
[34] = second compound 1 µM, first compound 1 µM
[35] = second compound 1 µM, first compound 3.16 µM
[36] = second compound 1 µM, first compound 10 µM

Which IC50 (second compound 0.00316 µM) does the source give for C#Cc1c(F)ccc2cc(O)cc(-c3ncc4c(N5CC6CCC(C5)N6)nc(OCC56CCCN5CC(F)C6)nc4c3F)c12 (centres undefined) + CNC(C)C(=O)NC1CN(S(=O)(=O)c2cccc(S(=O)(=O)N3CCC4CCC(C(=O)NC(c5ccccc5)c5ccccc5)N4C(=O)C(NC(=O)C(C)NC)C3)c2)CCC2CCC(C(=O)NC(c3ccccc3)c3ccccc3)N2C1=O here?
Its IC50 is over 10 µM.

And the IC50 (second compound 0.01 µM)?
Its IC50 is over 10 µM.

And the IC50 (second compound 0.0316 µM)?
The IC50 was over 10 µM.

And the IC50 (second compound 0.1 µM)?
Its IC50 is over 10 µM.

And the IC50 (second compound 0.316 µM)?
The IC50 was over 10 µM.

And the IC50 (second compound 1 µM)?
Its IC50 is over 10 µM.

And the viability, T/C [1]?
The viability, T/C was 106%.

What about the viability, T/C [2] of the same compound?
The viability, T/C was 93.7%.

What about the viability, T/C [3] of the same compound?
Its viability, T/C is 87.8%.

And the viability, T/C [4]?
Its viability, T/C is 90.2%.

What about the viability, T/C [5] of the same compound?
The viability, T/C was 101%.

What about the viability, T/C [6] of the same compound?
The viability, T/C was 135%.

What about the viability, T/C [7] of the same compound?
The viability, T/C was 104%.

And the viability, T/C [8]?
The viability, T/C was 89.9%.

And the viability, T/C [9]?
Its viability, T/C is 91%.

What about the viability, T/C [10] of the same compound?
Its viability, T/C is 103%.

What about the viability, T/C [11] of the same compound?
Its viability, T/C is 96.4%.

What about the viability, T/C [12] of the same compound?
The viability, T/C was 112%.

And the viability, T/C [13]?
The viability, T/C was 89%.

And the viability, T/C [14]?
The viability, T/C was 83.2%.

And the viability, T/C [15]?
The viability, T/C was 83%.

And the viability, T/C [16]?
Its viability, T/C is 88.2%.

And the viability, T/C [17]?
Its viability, T/C is 96.4%.

And the viability, T/C [18]?
The viability, T/C was 136%.

And the viability, T/C [19]?
The viability, T/C was 80.6%.

What about the viability, T/C [20] of the same compound?
Its viability, T/C is 95.4%.

What about the viability, T/C [21] of the same compound?
The viability, T/C was 88.4%.

And the viability, T/C [22]?
Its viability, T/C is 82.7%.

What about the viability, T/C [23] of the same compound?
The viability, T/C was 85.8%.

What about the viability, T/C [24] of the same compound?
Its viability, T/C is 98.2%.

What about the viability, T/C [25] of the same compound?
Its viability, T/C is 74%.

And the viability, T/C [26]?
Its viability, T/C is 87.6%.

And the viability, T/C [27]?
Its viability, T/C is 80.2%.

What about the viability, T/C [28] of the same compound?
The viability, T/C was 89.9%.

What about the viability, T/C [29] of the same compound?
The viability, T/C was 77.1%.

What about the viability, T/C [30] of the same compound?
Its viability, T/C is 119%.

And the viability, T/C [31]?
The viability, T/C was 80.9%.

And the viability, T/C [32]?
The viability, T/C was 86.1%.

What about the viability, T/C [33] of the same compound?
The viability, T/C was 112%.

What about the viability, T/C [34] of the same compound?
The viability, T/C was 91.6%.

And the viability, T/C [35]?
Its viability, T/C is 88.5%.

And the viability, T/C [36]?
Its viability, T/C is 109%.

C=C(F)C(=O)N1CCN(c2nc(OCC3CCCN3C)nc3c2CCN(c2cccc4cccc(Cl)c24)C3)CC1CC#N (centres undefined) + CNC(C)C(=O)NC1CN(S(=O)(=O)c2cccc(S(=O)(=O)N3CCC4CCC(C(=O)NC(c5ccccc5)c5ccccc5)N4C(=O)C(NC(=O)C(C)NC)C3)c2)CCC2CCC(C(=O)NC(c3ccccc3)c3ccccc3)N2C1=O was tested. Which IC50 (second compound 0.00316 µM) did it give?
The IC50 was 1.63 µM.

What about the IC50 (second compound 0.01 µM) of the same compound?
Its IC50 is 1.72 µM.

And the IC50 (second compound 0.0316 µM)?
The IC50 was 1.6 µM.

What about the IC50 (second compound 0.1 µM) of the same compound?
The IC50 was 0.958 µM.

What about the IC50 (second compound 0.316 µM) of the same compound?
The IC50 was 0.756 µM.

What about the IC50 (second compound 1 µM) of the same compound?
The IC50 was 0.639 µM.

And the viability, T/C [1]?
Its viability, T/C is 114%.

And the viability, T/C [2]?
The viability, T/C was 103%.

And the viability, T/C [3]?
Its viability, T/C is 107%.

And the viability, T/C [4]?
The viability, T/C was 83.1%.

What about the viability, T/C [5] of the same compound?
Its viability, T/C is 4.81%.

What about the viability, T/C [6] of the same compound?
Its viability, T/C is 0.78%.

And the viability, T/C [7]?
Its viability, T/C is 98.7%.

And the viability, T/C [8]?
Its viability, T/C is 94.6%.

And the viability, T/C [9]?
Its viability, T/C is 96%.

And the viability, T/C [10]?
Its viability, T/C is 91.2%.

What about the viability, T/C [11] of the same compound?
The viability, T/C was 4.17%.

And the viability, T/C [12]?
The viability, T/C was 0.22%.

And the viability, T/C [13]?
The viability, T/C was 97.8%.

And the viability, T/C [14]?
Its viability, T/C is 94.1%.

And the viability, T/C [15]?
The viability, T/C was 96.1%.

What about the viability, T/C [16] of the same compound?
The viability, T/C was 81.9%.

And the viability, T/C [17]?
Its viability, T/C is 3.55%.

What about the viability, T/C [18] of the same compound?
The viability, T/C was 0.26%.

What about the viability, T/C [19] of the same compound?
The viability, T/C was 83.1%.

What about the viability, T/C [20] of the same compound?
Its viability, T/C is 100%.

What about the viability, T/C [21] of the same compound?
The viability, T/C was 95.7%.

What about the viability, T/C [22] of the same compound?
Its viability, T/C is 48.3%.

And the viability, T/C [23]?
The viability, T/C was 3.72%.

What about the viability, T/C [24] of the same compound?
The viability, T/C was 0.27%.

What about the viability, T/C [25] of the same compound?
The viability, T/C was 90%.

What about the viability, T/C [26] of the same compound?
The viability, T/C was 89.9%.

What about the viability, T/C [27] of the same compound?
Its viability, T/C is 106%.

What about the viability, T/C [28] of the same compound?
Its viability, T/C is 35.4%.

What about the viability, T/C [29] of the same compound?
Its viability, T/C is 3.15%.

And the viability, T/C [30]?
The viability, T/C was 0.66%.

And the viability, T/C [31]?
The viability, T/C was 78%.

And the viability, T/C [32]?
The viability, T/C was 90.7%.

And the viability, T/C [33]?
The viability, T/C was 97.1%.

And the viability, T/C [34]?
The viability, T/C was 25.4%.

And the viability, T/C [35]?
The viability, T/C was 2.44%.

And the viability, T/C [36]?
Its viability, T/C is 0.35%.
